Reference: article PMC9014634 (Journal of Pharmacological Sciences, 2022)

Assay: in vitro
Assay type: cell-based
Conditions: human

Compound | CC50 [µM]
C[C@]12C=CC(=O)C=C1CC[C@@H]1[C@@H]2[C@@H](O)C[C@@]2(C)[C@H]1C[C@H]1O[C@@H](C3CCCCC3)O[C@]12C(=O)CO [Cic2, desisobutyryl ciclesonide] | > 30
CC(C)C(=O)OCC(=O)[C@@]12O[C@H](C3CCCCC3)O[C@@H]1C[C@H]1[C@@H]3CCC4=CC(=O)C=C[C@]4(C)[C@H]3[C@@H](O)C[C@@]12C [Cic, Ciclesonide] | > 30
